ChEMBL document CHEMBL1201862, “PubChem BioAssay data set” (2004)
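Results reflect a 48-hour exposure of cells in 96-well plates to compound at five concentrations. GI50 marks 50% less growth.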 The source made the active and inactive calls. No stated cut-off is given here; in the data, active = GI50 up to about 1.1 µM and inactive = higher.

Key:
Experiment in all cases: NCI-60 cell line screen, 48 h
A549 = test system: A549
HCT-116 = test system: HCT-116
HCT-15 = test system: HCT-15
HOP-62 = test system: HOP-62
LOX IMVI = test system: LOX IMVI
MDA-MB-231 = test system: MDA-MB-231
Malme-3M = test system: Malme-3M
NCI-H226 = test system: NCI-H226
NCI-H460 = test system: NCI-H460
OVCAR-3 = test system: OVCAR-3
PC-3 = test system: PC-3
RPMI-8226 = test system: RPMI-8226
SF-268 = test system: SF-268
SK-MEL-28 = test system: SK-MEL-28
SK-MEL-2 = test system: SK-MEL-2
SK-MEL-5 = test system: SK-MEL-5
SNB-19 = test system: SNB-19
SW-620 = test system: SW-620
TK-10 = test system: TK-10
U-251 = test system: U-251

SMILES	GI50 (A549)	GI50 (HCT-116)	GI50 (HCT-15) [µM]	GI50 (HOP-62)	GI50 (LOX IMVI)	GI50 (MDA-MB-231)	GI50 (Malme-3M)	GI50 (NCI-H226)	GI50 (NCI-H460)	GI50 (OVCAR-3)	GI50 (PC-3)	GI50 (RPMI-8226)	GI50 (SF-268)	GI50 (SK-MEL-28)	GI50 (SK-MEL-2)	GI50 (SK-MEL-5)	GI50 (SNB-19)	GI50 (SW-620)	GI50 (TK-10)	GI50 (U-251)
CCCCCCc1nn2c(-c3ccncc3)nnc2s1	> 10 µM (inactive)	> 10 µM (inactive)	> 10	> 10 µM (inactive)	> 10 µM (inactive)	> 10 µM (inactive)	> 10 µM (inactive)	> 10 µM (inactive)	> 10 µM (inactive)	> 10 µM (inactive)	> 10 µM (inactive)	> 10 µM (inactive)	> 10 µM (inactive)	> 10 µM (inactive)	> 10 µM (inactive)	> 10 µM (inactive)	> 10 µM (inactive)	> 10 µM (inactive)	> 10 µM (inactive)	> 10 µM (inactive)
CC1=NN(C(=O)CC(=O)Nc2cccc(C)c2)C(=O)C1/N=N\c1ccc(S(=O)(=O)c2ccc(/N=N/C3C(=O)N(C(=O)CC(=O)Nc4cccc(C)c4)N=C3C)cc2)cc1 (stereo not drawn)	> 100 µM (inactive)	> 100 µM (inactive)	> 100	> 100 µM (inactive)	> 100 µM (inactive)	> 100 µM (inactive)	85.5 µM (inactive)	> 100 µM (inactive)	> 100 µM (inactive)	> 100 µM (inactive)	> 100 µM (inactive)	> 100 µM (inactive)	> 100 µM (inactive)	> 100 µM (inactive)	> 100 µM (inactive)	> 100 µM (inactive)	> 100 µM (inactive)	> 100 µM (inactive)	> 100 µM (inactive)	> 100 µM (inactive)
CC(=O)OCC1OC(O[C@@H]2C[C@H]3C(C)(C)[C@H](OC(C)=O)CC[C@]3(C)[C@H]3CC[C@@]45C[C@H](O)C[C@H](C)[C@@H]4CC=C5[C@@]32C)C(O)C(O)C1O (stereo partly drawn)	4.59 µM (inactive)	2.08 µM (inactive)	11.2	9.53 µM (inactive)	1.98 µM (inactive)	2.39 µM (inactive)	6.92 µM (inactive)	4.37 µM (inactive)	3.26 µM (inactive)	3.75 µM (inactive)	3.03 µM (inactive)	2.42 µM (inactive)	4.01 µM (inactive)	7.19 µM (inactive)	2.33 µM (inactive)	3.24 µM (inactive)	4.02 µM (inactive)	4.18 µM (inactive)	8.93 µM (inactive)	3.04 µM (inactive)
O=C1NC(=S)N/C1=C/c1c(-c2ccccc2)[nH]c2ccccc12		14.3 µM (inactive)	14.7	15.5 µM (inactive)	10.9 µM (inactive)	13.7 µM (inactive)	13.5 µM (inactive)	16.3 µM (inactive)	12.9 µM (inactive)	16.1 µM (inactive)	12.9 µM (inactive)	8.73 µM (inactive)	25.7 µM (inactive)	16.6 µM (inactive)	13.2 µM (inactive)	13 µM (inactive)	16.5 µM (inactive)	17.1 µM (inactive)	15.8 µM (inactive)	15.7 µM (inactive)
CC(C)(C)C(=O)C(CC(=O)c1ccccc1)C(=O)C(C)(C)C	> 100 µM (inactive)	> 100 µM (inactive)	> 100	99.1 µM (inactive)	> 100 µM (inactive)	> 100 µM (inactive)	> 100 µM (inactive)	> 100 µM (inactive)	> 100 µM (inactive)	> 100 µM (inactive)	> 100 µM (inactive)	> 100 µM (inactive)	83.9 µM (inactive)	> 100 µM (inactive)	> 100 µM (inactive)	> 100 µM (inactive)	> 100 µM (inactive)	> 100 µM (inactive)	> 100 µM (inactive)	> 100 µM (inactive)
C1=CC2C=CC(C=C1)P2c1ccccc1 (stereo not drawn)	> 100 µM (inactive)	> 100 µM (inactive)	> 100	> 100 µM (inactive)	> 100 µM (inactive)	> 100 µM (inactive)	> 100 µM (inactive)	> 100 µM (inactive)	> 100 µM (inactive)	> 100 µM (inactive)	> 100 µM (inactive)	> 100 µM (inactive)	> 100 µM (inactive)	> 100 µM (inactive)	> 100 µM (inactive)	> 100 µM (inactive)	> 100 µM (inactive)	> 100 µM (inactive)	> 100 µM (inactive)	> 100 µM (inactive)
O=C1C(N2CCOCC2)=C(Cl)C(=O)c2ncccc21	> 10 µM (inactive)	1.71 µM (inactive)	2.03	> 10 µM (inactive)	1.94 µM (inactive)	2.49 µM (inactive)	1.89 µM (inactive)	> 6.25 µM (inactive)	> 6.79 µM (inactive)	1.81 µM (inactive)	> 9.62 µM (inactive)	1.56 µM (inactive)	2.9 µM (inactive)	2.2 µM (inactive)	1.87 µM (inactive)	1.82 µM (inactive)	> 10 µM (inactive)	1.87 µM (inactive)	1.98 µM (inactive)	5.71 µM (inactive)
Oc1ccc2c(c1)CCc1c-2n(CCN2CCOCC2)c2ccc(O)cc12		41.3 µM (inactive)	36.1	43.4 µM (inactive)	41.2 µM (inactive)	49.7 µM (inactive)	25.3 µM (inactive)	22.8 µM (inactive)	33.2 µM (inactive)	48.6 µM (inactive)	35.3 µM (inactive)	29.1 µM (inactive)	31.8 µM (inactive)	29.3 µM (inactive)	27.1 µM (inactive)	15.7 µM (inactive)	25.1 µM (inactive)	44.9 µM (inactive)	36.7 µM (inactive)	35.9 µM (inactive)
CN1CCCC2C(c3ccccc3)C(C3=NCCCC3)C(c3ccccc3)CC21 (stereo not drawn)	> 100 µM (inactive)	15.9 µM (inactive)	27.2	> 100 µM (inactive)	19.5 µM (inactive)	51.2 µM (inactive)	19.6 µM (inactive)	> 100 µM (inactive)	27.7 µM (inactive)	35.6 µM (inactive)	44.7 µM (inactive)	18.4 µM (inactive)	59.3 µM (inactive)	16.2 µM (inactive)	> 100 µM (inactive)	16.9 µM (inactive)	> 100 µM (inactive)	48.6 µM (inactive)	> 100 µM (inactive)	32.2 µM (inactive)
C[n+]1cccc2ccc3cccnc3c21	5.64 µM (inactive)	19.4 µM (inactive)	61.8	19.5 µM (inactive)	29 µM (inactive)	83.6 µM (inactive)	16.1 µM (inactive)	20.6 µM (inactive)	23.2 µM (inactive)	26.3 µM (inactive)	27.5 µM (inactive)	4.91 µM (inactive)	17.6 µM (inactive)	55.7 µM (inactive)	19.3 µM (inactive)	16.2 µM (inactive)	30.8 µM (inactive)	32.4 µM (inactive)	27.5 µM (inactive)	18.5 µM (inactive)
C=C1CC/C=C(/C(=O)O)CC[C@H]2[C@@H]1CC2(C)C	> 100 µM (inactive)	> 100 µM (inactive)	> 100	> 100 µM (inactive)	> 100 µM (inactive)	> 100 µM (inactive)	> 100 µM (inactive)	> 100 µM (inactive)	> 100 µM (inactive)	> 100 µM (inactive)	> 100 µM (inactive)	> 100 µM (inactive)	> 100 µM (inactive)	> 100 µM (inactive)	> 100 µM (inactive)	> 100 µM (inactive)	> 100 µM (inactive)	> 100 µM (inactive)	> 100 µM (inactive)	> 100 µM (inactive)
c1ccc2cc(CNCCCCNCCCNCc3ccc4ccccc4c3)ccc2c1	1.62 µM (inactive)	0.3 µM (active)	0.824	1.61 µM (inactive)	0.202 µM (active)	1.82 µM (inactive)	1.71 µM (inactive)	1.17 µM (inactive)	0.188 µM (active)	1.6 µM (inactive)	1.63 µM (inactive)	0.226 µM (active)	1.41 µM (inactive)	1.69 µM (inactive)	2.07 µM (inactive)	2.4 µM (inactive)	1.43 µM (inactive)	0.324 µM (active)	1.75 µM (inactive)	0.564 µM (active)
CCO/N=C\c1ccc2oc(-c3ccccc3)cc(=O)c2c1	0.417 µM (active)	0.181 µM (active)	0.0475	0.46 µM (active)	1.07 µM (active)	0.557 µM (active)	0.184 µM (active)	0.421 µM (active)	0.136 µM (active)	0.0778 µM (active)	0.19 µM (active)	0.215 µM (active)	0.74 µM (active)	28.8 µM (inactive)	0.127 µM (active)	0.146 µM (active)	0.48 µM (active)	0.129 µM (active)	2.26 µM (inactive)	0.628 µM (active)
CN(C)CCCn1nc(N)c2nc3cc(Cl)ccc3nc21	37.1 µM (inactive)	30.3 µM (inactive)	48.9	55.3 µM (inactive)	34.8 µM (inactive)	58.3 µM (inactive)	41.1 µM (inactive)	45.2 µM (inactive)	39.3 µM (inactive)	99.8 µM (inactive)	41.4 µM (inactive)	60.3 µM (inactive)	58.1 µM (inactive)	18.1 µM (inactive)	28.3 µM (inactive)	20 µM (inactive)	65.3 µM (inactive)	36.2 µM (inactive)	54.7 µM (inactive)	44.8 µM (inactive)
